Data as given in ChEMBL document CHEMBL4706488, “Design, synthesis and biological evaluation of 2-amino-4-(1,2,4-triazol)pyridine derivatives as potent EGFR inhibitors to overcome TKI-resistance” (Eur J Med Chem, 2020).
pIC50: −log10 of the molar value. Activity calls are given as the source filed them. The calls are words filed in the database; no cut-off is given here.

Legend:
[1] = cells; type: functional, tissue-based; conditions: Homo sapiens, U87MG Human EGFR vIII
[2] = system: NCI-H1975; experiment: cells; type: functional, cell-based; conditions: Homo sapiens
[3] = system: U-87 MG; experiment: cells; type: functional, cell-based, U-87MG ATCC; conditions: Homo sapiens;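 further: antiproliferative effect on U-87 MG cells carrying wild-type EGFR, growth inhibition read out by MTT assay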
[4] = system: A-431; experiment: cells; type: functional, cell-based; conditions: Homo sapiens;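 further: antiproliferative test in A-431 cells carrying wild-type EGFR, with cell growth inhibition read by MTT assay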
[5] = molecular target: Epidermal growth factor receptor (Homo sapiens, UniProt P00533, L858R/T790M); experiment: biochemical; type: cell-based, Sf21
Sequence of Epidermal growth factor receptor (Homo sapiens, UniProt P00533, L858R/T790M) (P00533 25-1210 T790M/L858R limits assumed): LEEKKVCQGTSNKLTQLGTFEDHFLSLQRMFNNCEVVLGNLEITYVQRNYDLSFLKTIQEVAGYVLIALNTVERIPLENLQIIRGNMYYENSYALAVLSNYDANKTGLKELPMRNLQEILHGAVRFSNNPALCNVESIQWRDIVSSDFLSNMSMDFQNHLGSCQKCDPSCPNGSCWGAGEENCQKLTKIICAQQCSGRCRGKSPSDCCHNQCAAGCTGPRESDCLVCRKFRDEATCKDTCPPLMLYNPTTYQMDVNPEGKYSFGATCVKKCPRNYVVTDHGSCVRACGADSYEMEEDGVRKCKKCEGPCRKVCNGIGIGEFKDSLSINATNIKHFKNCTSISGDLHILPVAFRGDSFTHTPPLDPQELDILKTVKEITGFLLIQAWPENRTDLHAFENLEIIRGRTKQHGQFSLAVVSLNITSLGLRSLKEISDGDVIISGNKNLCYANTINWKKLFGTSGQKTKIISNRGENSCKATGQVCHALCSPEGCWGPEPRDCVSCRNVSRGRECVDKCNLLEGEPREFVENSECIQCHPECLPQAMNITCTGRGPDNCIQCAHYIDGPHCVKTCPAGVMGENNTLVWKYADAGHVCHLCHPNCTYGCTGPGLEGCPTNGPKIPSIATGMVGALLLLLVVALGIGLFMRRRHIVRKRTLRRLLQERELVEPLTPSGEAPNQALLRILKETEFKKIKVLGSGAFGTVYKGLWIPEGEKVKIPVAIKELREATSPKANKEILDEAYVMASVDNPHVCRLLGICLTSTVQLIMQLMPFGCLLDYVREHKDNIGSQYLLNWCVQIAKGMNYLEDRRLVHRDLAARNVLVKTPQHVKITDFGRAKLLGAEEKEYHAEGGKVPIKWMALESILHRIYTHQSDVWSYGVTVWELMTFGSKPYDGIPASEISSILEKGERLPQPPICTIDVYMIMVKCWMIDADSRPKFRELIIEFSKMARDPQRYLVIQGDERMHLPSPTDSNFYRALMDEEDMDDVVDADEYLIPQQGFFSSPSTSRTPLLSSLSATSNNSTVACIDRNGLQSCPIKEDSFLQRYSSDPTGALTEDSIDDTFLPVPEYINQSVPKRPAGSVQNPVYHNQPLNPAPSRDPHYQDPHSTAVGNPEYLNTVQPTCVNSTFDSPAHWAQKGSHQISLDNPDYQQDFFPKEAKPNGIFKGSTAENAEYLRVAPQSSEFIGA

[6] = molecular target: Epidermal growth factor receptor (Homo sapiens, UniProt P00533); experiment: biochemical; type: cell-based, Sf21
Sequence of Epidermal growth factor receptor (Homo sapiens, UniProt P00533) (P00533 whole entry, the tested form may be a part): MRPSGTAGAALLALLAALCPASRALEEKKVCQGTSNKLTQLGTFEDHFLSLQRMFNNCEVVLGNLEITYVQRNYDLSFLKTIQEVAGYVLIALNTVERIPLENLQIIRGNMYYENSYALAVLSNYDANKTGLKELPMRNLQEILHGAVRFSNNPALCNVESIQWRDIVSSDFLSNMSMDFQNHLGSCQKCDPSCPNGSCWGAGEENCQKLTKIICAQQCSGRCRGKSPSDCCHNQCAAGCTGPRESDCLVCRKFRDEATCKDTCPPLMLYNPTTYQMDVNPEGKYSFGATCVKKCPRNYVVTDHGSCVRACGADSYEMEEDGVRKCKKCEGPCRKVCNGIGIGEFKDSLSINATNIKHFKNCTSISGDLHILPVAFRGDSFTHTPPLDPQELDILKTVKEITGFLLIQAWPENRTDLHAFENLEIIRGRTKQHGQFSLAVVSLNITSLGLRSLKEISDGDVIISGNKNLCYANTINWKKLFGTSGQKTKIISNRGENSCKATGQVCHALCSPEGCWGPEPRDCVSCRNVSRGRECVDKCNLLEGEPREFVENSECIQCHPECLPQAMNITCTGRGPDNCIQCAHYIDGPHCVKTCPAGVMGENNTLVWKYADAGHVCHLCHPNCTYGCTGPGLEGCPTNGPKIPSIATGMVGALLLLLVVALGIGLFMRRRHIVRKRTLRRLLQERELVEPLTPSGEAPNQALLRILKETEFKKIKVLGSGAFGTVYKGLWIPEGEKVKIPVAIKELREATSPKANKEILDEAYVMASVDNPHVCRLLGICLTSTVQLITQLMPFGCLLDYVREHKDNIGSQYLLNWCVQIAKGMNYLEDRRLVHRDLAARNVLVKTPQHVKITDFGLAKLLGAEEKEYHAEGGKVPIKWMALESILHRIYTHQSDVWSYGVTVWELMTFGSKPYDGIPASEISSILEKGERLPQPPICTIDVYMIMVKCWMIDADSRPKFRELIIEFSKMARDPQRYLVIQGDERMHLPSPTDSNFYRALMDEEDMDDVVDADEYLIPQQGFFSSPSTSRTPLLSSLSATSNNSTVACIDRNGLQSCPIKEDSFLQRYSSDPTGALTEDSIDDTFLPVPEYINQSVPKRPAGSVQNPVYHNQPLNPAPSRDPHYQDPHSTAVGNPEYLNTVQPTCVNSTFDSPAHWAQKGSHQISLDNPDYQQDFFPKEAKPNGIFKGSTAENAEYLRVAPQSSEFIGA

[7] = molecular target: Tyrosine-protein kinase JAK2 (Homo sapiens) (UniProt O60674); experiment: Inhibition of recombinant human GST-tagged JAK2 (809 to 1162 residues) expressed in baculovirus expression system at 1 uM by Z-lyte assay relative to control
[8] = molecular target: Mitogen-activated protein kinase 9 (Homo sapiens) (UniProt P45984); experiment: Inhibition of recombinant full length human His-tagged MAPK9 expressed in baculovirus expression system at 1 uM by Z-lyte assay relative to control
Sequence of Mitogen-activated protein kinase 9 (Homo sapiens) (P45984 whole entry, looked up): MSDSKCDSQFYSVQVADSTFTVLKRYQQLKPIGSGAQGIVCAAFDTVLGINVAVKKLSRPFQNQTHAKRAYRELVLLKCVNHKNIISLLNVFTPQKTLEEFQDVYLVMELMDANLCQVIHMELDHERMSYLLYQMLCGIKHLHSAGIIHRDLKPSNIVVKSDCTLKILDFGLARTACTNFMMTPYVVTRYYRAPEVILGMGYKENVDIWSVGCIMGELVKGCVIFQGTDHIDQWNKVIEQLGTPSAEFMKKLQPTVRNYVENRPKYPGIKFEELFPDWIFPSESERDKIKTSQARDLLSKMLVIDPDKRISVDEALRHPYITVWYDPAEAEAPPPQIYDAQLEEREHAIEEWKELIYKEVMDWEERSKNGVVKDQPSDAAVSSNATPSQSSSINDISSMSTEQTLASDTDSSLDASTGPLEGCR

[9] = system: NCI-H1975; experiment: Induction of apoptosis in human NCI-H1975 cells assessed as late apoptotic cells at 5 uM by annexinV-FITC/propidium iodide staining based flow cytometry analysis (reference value: 0.42 %); type: functional
[10] = molecular target: Receptor tyrosine-protein kinase erbB-4 (Homo sapiens) (UniProt Q15303); experiment: Inhibition of N-terminal GST-tagged human recombinant HER4 (708 to 993 residues) expressed in baculovirus expression system at 1 uM by Z-lyte assay relative to control
[11] = molecular target: ALK tyrosine kinase receptor (Homo sapiens) (UniProt Q9UM73); experiment: Inhibition of human recombinant GST-tagged ALK cytoplasmic domain (1058-1620 residues) expressed in baculovirus expression system at 1 uM by Z-lyte assay relative to control
[12] = molecular target: Hepatocyte growth factor receptor (Homo sapiens) (UniProt P08581); experiment: Inhibition of recombinant human N-terminal His-tagged cMET (956 to 1390 residues) expressed in baculovirus expression system at 1 uM by Z-lyte assay relative to control
[13] = system: NCI-H1975; experiment: Induction of apoptosis in human NCI-H1975 cells assessed as early apoptotic cells at 20 uM by annexinV-FITC/propidium iodide staining based flow cytometry analysis (reference value: 0.53 %); type: functional
[14] = molecular target: Serine/threonine-protein kinase B-raf (Homo sapiens) (UniProt P15056); experiment: Inhibition of recombinant full length human GST-tagged BRAF expressed in baculovirus expression system at 1 uM by Z-lyte assay relative to control
Sequence of Serine/threonine-protein kinase B-raf (Homo sapiens) (P15056 whole entry): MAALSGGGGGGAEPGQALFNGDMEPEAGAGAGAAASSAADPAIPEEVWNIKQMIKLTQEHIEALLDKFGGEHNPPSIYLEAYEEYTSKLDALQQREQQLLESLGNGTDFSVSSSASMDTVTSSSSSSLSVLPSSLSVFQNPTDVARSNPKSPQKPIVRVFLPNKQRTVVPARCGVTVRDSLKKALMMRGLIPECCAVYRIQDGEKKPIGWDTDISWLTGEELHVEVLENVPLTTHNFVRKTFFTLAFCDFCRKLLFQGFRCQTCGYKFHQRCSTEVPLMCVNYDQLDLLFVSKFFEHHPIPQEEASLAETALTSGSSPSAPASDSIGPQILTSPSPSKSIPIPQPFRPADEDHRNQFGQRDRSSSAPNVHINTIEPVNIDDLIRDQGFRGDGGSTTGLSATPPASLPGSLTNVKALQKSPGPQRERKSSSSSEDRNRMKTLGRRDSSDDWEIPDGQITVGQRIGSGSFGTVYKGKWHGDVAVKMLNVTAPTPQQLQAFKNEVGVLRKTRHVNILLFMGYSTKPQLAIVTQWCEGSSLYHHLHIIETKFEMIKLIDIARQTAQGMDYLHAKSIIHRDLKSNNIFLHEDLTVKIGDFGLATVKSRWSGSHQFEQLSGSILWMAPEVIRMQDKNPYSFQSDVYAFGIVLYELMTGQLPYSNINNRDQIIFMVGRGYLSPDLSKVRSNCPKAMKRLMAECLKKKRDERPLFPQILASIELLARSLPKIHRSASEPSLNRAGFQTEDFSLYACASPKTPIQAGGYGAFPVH

[15] = system: NCI-H1975; experiment: Induction of apoptosis in human NCI-H1975 cells assessed as early apoptotic cells at 10 uM by annexinV-FITC/propidium iodide staining based flow cytometry analysis (reference value: 0.53 %); type: functional
[16] = molecular target: Tyrosine-protein kinase Fyn (Homo sapiens) (UniProt P06241); experiment: Inhibition of recombinant full length human C-terminal His-tagged FYN expressed in baculovirus expression system at 1 uM by Z-lyte assay relative to control
Sequence of Tyrosine-protein kinase Fyn (Homo sapiens) (P06241 2-537 limits assumed): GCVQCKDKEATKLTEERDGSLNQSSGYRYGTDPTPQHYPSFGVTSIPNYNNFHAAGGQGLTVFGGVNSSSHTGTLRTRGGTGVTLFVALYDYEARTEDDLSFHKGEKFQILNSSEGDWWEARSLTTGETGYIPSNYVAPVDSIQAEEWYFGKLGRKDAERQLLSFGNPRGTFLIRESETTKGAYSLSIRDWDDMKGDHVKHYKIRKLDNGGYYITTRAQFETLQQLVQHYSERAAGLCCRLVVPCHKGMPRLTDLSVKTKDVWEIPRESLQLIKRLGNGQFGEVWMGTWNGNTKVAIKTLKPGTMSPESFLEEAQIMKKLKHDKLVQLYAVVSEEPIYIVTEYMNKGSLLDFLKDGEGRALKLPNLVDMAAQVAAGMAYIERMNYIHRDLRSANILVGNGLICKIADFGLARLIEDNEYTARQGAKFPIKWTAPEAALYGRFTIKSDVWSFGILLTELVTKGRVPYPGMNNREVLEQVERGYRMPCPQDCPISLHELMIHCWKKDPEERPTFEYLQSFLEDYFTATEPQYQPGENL

[17] = system: NCI-H1975; experiment: Induction of apoptosis in human NCI-H1975 cells assessed as live cells at 10 uM by annexinV-FITC/propidium iodide staining based flow cytometry analysis (reference value: 98.6 %); type: functional
[18] = system: NCI-H1975; experiment: Induction of apoptosis in human NCI-H1975 cells assessed as live cells at 5 uM by annexinV-FITC/propidium iodide staining based flow cytometry analysis (reference value: 98.6 %); type: functional
[19] = system: NCI-H1975; experiment: Induction of apoptosis in human NCI-H1975 cells assessed as necrotic cells at 10 uM by annexinV-FITC/propidium iodide staining based flow cytometry analysis (reference value: 0.44 %); type: functional
[20] = molecular target: Aurora kinase B (Homo sapiens) (UniProt Q96GD4); experiment: Inhibition of recombinant full length human His-tagged AURKB expressed in baculovirus expression system at 1 uM by Z-lyte assay relative to control
Sequence of Aurora kinase B (Homo sapiens) (Q96GD4 whole entry, the tested form may be a part): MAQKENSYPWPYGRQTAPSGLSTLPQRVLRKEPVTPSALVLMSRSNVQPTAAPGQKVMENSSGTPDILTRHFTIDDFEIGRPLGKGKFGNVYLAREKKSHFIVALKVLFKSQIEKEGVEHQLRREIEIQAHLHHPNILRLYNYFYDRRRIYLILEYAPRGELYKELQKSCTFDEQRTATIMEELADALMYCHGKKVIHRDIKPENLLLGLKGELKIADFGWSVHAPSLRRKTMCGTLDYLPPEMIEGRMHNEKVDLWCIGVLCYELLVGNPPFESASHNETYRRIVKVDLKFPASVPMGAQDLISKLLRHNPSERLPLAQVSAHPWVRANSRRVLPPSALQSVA

[21] = molecular target: Receptor tyrosine-protein kinase erbB-2 (Homo sapiens) (UniProt P04626); experiment: Inhibition of human recombinant His-tagged HER2 (676 to 1255 residues) expressed in baculovirus expression system at 1 uM by Z-lyte assay relative to control
[22] = system: NCI-H1975; experiment: Induction of apoptosis in human NCI-H1975 cells assessed as late apoptotic cells at 10 uM by annexinV-FITC/propidium iodide staining based flow cytometry analysis (reference value: 0.42 %); type: functional
[23] = molecular target: Tyrosine-protein kinase BTK (Homo sapiens) (UniProt Q06187); experiment: Inhibition of recombinant full length human His-tagged BTK expressed in baculovirus expression system at 1 uM by Z-lyte assay relative to control
[24] = system: NCI-H1975; experiment: Induction of apoptosis in human NCI-H1975 cells assessed as necrotic cells at 5 uM by annexinV-FITC/propidium iodide staining based flow cytometry analysis (reference value: 0.44 %); type: functional
[25] = molecular target: Macrophage colony-stimulating factor 1 receptor (Homo sapiens) (UniProt P07333); experiment: Inhibition of recombinant human His-tagged CSF1R (538 to 910 residues) expressed in baculovirus expression system at 1 uM by Z-lyte assay relative to control
[26] = system: NCI-H1975; experiment: Induction of apoptosis in human NCI-H1975 cells assessed as necrotic cells at 20 uM by annexinV-FITC/propidium iodide staining based flow cytometry analysis (reference value: 0.44 %); type: functional
[27] = system: NCI-H1975; experiment: Induction of apoptosis in human NCI-H1975 cells assessed as early apoptotic cells at 5 uM by annexinV-FITC/propidium iodide staining based flow cytometry analysis (reference value: 0.53 %); type: functional
[28] = molecular target: BDNF/NT-3 growth factors receptor (Homo sapiens) (UniProt Q16620); experiment: Inhibition of recombinant human His-tagged NTRK2 (526 to 638 residues) expressed in baculovirus expression system at 1 uM by Z-lyte assay relative to control
[29] = system: NCI-H1975; experiment: Induction of apoptosis in human NCI-H1975 cells assessed as late apoptotic cells at 20 uM by annexinV-FITC/propidium iodide staining based flow cytometry analysis (reference value: 0.42 %); type: functional
[30] = system: U87MG Human EGFR vIII; experiment: Induction of apoptosis in human U87MG Human EGFR vIII cells by annexinV-FITC/propidium iodide staining based flow cytometry analysis; type: functional, cell-based
[31] = molecular target: Insulin-like growth factor 1 receptor (Homo sapiens) (UniProt P08069); experiment: Inhibition of recombinant human C-terminal His-tagged IGF1R (960 to 1397 residues) expressed in baculovirus expression system at 1 uM by Z-lyte assay relative to control
[32] = molecular target: Tyrosine-protein kinase Lck (Homo sapiens) (UniProt P06239); experiment: Inhibition of recombinant human LCK at 1 uM by Z-lyte assay relative to control
Sequence of Tyrosine-protein kinase Lck (Homo sapiens) (P06239 2-509 limits assumed): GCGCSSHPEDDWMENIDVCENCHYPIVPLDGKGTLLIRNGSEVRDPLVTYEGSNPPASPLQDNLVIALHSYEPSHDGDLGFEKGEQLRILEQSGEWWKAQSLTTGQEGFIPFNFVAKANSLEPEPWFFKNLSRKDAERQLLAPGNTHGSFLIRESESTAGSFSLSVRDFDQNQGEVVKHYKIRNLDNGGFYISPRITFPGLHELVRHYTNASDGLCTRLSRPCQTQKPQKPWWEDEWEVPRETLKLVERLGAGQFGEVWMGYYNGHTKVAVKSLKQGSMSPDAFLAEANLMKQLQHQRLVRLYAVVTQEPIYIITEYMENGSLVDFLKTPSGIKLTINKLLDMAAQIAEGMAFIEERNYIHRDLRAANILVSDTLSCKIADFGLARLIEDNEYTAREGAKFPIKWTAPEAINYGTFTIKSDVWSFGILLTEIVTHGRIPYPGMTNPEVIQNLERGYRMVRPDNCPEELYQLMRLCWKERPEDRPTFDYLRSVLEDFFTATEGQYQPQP

[33] = molecular target: Vascular endothelial growth factor receptor 2 (Homo sapiens) (UniProt P35968); experiment: Inhibition of recombinant human His-tagged VEGFR2 (789 to 1356 residues) expressed in baculovirus expression system at 1 uM by Z-lyte assay relative to control
[34] = system: NCI-H1975; experiment: Induction of apoptosis in human NCI-H1975 cells assessed as live cells at 20 uM by annexinV-FITC/propidium iodide staining based flow cytometry analysis (reference value: 98.6 %); type: functional

## C=CC(=O)Nc1cc(Nc2nccc(-c3cn(C)c4ccccc34)n2)c(OC)cc1N(C)CCN(C)C [OSIMERTINIB]
[1]
  pIC50: 4.88
[2]
  pIC50: […]
[3]
  pIC50: 5.35
[4]
  pIC50: […]

## C=CC(=O)Nc1cccc(Nc2cc(-n3c(SC)nnc3-c3ccc(F)cc3)ccn2)c1
[1]
  pIC50: 4.89
[5]
  pIC50: 6.63
[2]
  pIC50: 4.97
[3]
  pIC50: 5.46
[4]
  pIC50: 5.16

## C=CC(=O)Nc1cc(Nc2cc(-n3c(SC)nnc3-c3ccc(F)cc3)ccn2)c(OC)cc1N1CCN(C)CC1
[1]
  pIC50: < 4.00
[2]
  pIC50: < 4.00
[3]
  pIC50: 5.06
[4]
  pIC50: 4.84

## C=CC(=O)Nc1ccc(OC)c(Nc2cc(-n3c(SC)nnc3-c3ccc(F)cc3)ccn2)c1
[1]
  pIC50: 4.58
[5]
  pIC50: 6.83
[2]
  pIC50: 5.11
[3]
  pIC50: 5.35
[4]
  pIC50: 5.47
[6]
  pIC50: 6.75

## COc1cc(N(C)CCN(C)C)ccc1Nc1cc(-n2c(SC)nnc2-c2ccc(F)cc2)ccn1
[1]
  pIC50: < 4.00
[2]
  pIC50: 4.38
[3]
  pIC50: 4.72
[4]
  pIC50: < 4.00

## C=CC(=O)Nc1cc(Nc2nccc(-n3cc(CN(C)C)c(-c4ccccc4)n3)n2)c(OC)cc1N1CCOCC1 [LAZERTINIB]
[1]
  pIC50: < 4.00
[5]
  pIC50: 8.57
[2]
  pIC50: > 6.00
[3]
  pIC50: 4.48
[4]
  pIC50: 5.44
[6]
  pIC50: 7.46

## C=CC(=O)Nc1cc(Nc2cc(-n3c(SC)nnc3-c3ccc(F)cc3)ccn2)c(OC)cc1N1CCC(N2CCOCC2)CC1
[1]
  pIC50: 4.69
[5]
  pIC50: 6.95
[2]
  pIC50: 4.78
[3]
  pIC50: 4.82
[4]
  pIC50: 5.15

## C=CC(=O)Nc1cc(Nc2cc(-n3c(SC)nnc3-c3ccc(F)cc3)ccn2)c(OC)cc1N1CCCN(C)CC1
[1]
  pIC50: 4.36
[5]
  pIC50: 6.81
[2]
  pIC50: 5.09
[3]
  pIC50: 5.16
[4]
  pIC50: 4.99
[6]
  pIC50: 6.48

## C=CC(=O)Nc1ccc(OC)c(Nc2cc(-n3c(C)nnc3-c3ccc(F)cc3)ccn2)c1
[1]
  pIC50: 4.45
[2]
  pIC50: 4.27
[3]
  pIC50: 4.17
[4]
  pIC50: 4.28

## C=CC(=O)Nc1cccc(Nc2cc(-n3c(CCCO)nnc3-c3ccc(F)cc3)ccn2)c1
[1]
  pIC50: < 4.00
[5]
  pIC50: 6.84
[2]
  pIC50: < 4.00
[3]
  pIC50: 4.66
[4]
  pIC50: 4.18
[6]
  pIC50: 6.71

## C=CC(=O)Nc1cc(Nc2cc(-n3c(SC)nnc3-c3ccc(F)cc3)ccn2)c(OC)cc1N(C)CCN(C)C
[1]
  pIC50: 4.74
[7]
  inhibition: 12%
[8]
  inhibition: 7%
[9]
  Activity: 1.1%
[10]
  inhibition: 76%
[11]
  inhibition: 10%
[12]
  inhibition: 9%
[13]
  Activity: 4.83%
[14]
  inhibition: -7%
[15]
  Activity: 1.69%
[16]
  inhibition: 5%
[17]
  Activity: 95.5%
[18]
  Activity: 97.2%
[19]
  Activity: 0.91%
[20]
  inhibition: 13%
[21]
  inhibition: 16%
[22]
  Activity: 1.87%
[23]
  inhibition: 4%
[24]
  Activity: 0.44%
[25]
  inhibition: 12%
[5]
  pIC50: 7.37
[26]
  Activity: 3.99%
[27]
  Activity: 1.28%
[28]
  inhibition: 17%
[2]
  pIC50: 5.27
[29]
  Activity: 7.14%
[30]
  Activity: inactive
[31]
  inhibition: 10%
[32]
  inhibition: 11%
[3]
  pIC50: 5.55
[4]
  pIC50: 5.40
[6]
  pIC50: 7.05
[33]
  inhibition: 18%
[34]
  Activity: 84%

## C=CC(=O)Nc1ccc(OC)c(Nc2cc(-n3c(CCCO)nnc3-c3ccc(F)cc3)ccn2)c1
[1]
  pIC50: < 4.00
[2]
  pIC50: < 4.00
[3]
  pIC50: < 4.00
[4]
  pIC50: 4.05

## C=CC(=O)Nc1cccc(Nc2cc(-n3c(C)nnc3-c3ccc(F)cc3)ccn2)c1
[1]
  pIC50: 4.42
[2]
  pIC50: 4.67
[3]
  pIC50: 4.29
[4]
  pIC50: 4.91

## C=CC(=O)Nc1cc(Nc2cc(-n3c(SC)nnc3-c3ccc(F)cc3)ccn2)c(OC)cc1N1CCC(N2CCN(C)CC2)CC1
[1]
  pIC50: 4.59
[2]
  pIC50: 5.35
[3]
  pIC50: 5.44
[4]
  pIC50: 5.03

## CCC(=O)Nc1cc(Nc2cc(-n3c(SC)nnc3-c3ccc(F)cc3)ccn2)c(OC)cc1N(C)CCN(C)C
[1]
  pIC50: < 4.00
[2]
  pIC50: < 4.00
[3]
  pIC50: 4.27
[4]
  pIC50: 4.13

## C=CC(=O)Nc1cc(Nc2cc(-n3c(SC)nnc3-c3ccc(F)cc3)ccn2)c(OC)cc1N1CCC(N(C)C)CC1
[1]
  pIC50: 4.40
[2]
  pIC50: 4.88
[3]
  pIC50: 5.07
[4]
  pIC50: 4.94

## C=CC(=O)Nc1cc(Nc2cc(-n3c(SC)nnc3-c3ccc(F)cc3)ccn2)c(OC)cc1N1CCN(C2CCN(C)CC2)CC1
[1]
  pIC50: 4.59
[2]
  pIC50: 4.83
[3]
  pIC50: 5.19
[4]
  pIC50: 5.00
